Measured values as given in US7728036B2, “Methods for delivery of catecholic butanes for treatment of tumors” (priority 2003, dated 2010).

Experiments:
[1] = test system: HT-29 colorectal carcinoma cells; assay: Xenograft assay of human tumors in athymic nude mice, HT-29; format: in vivo
From the text: (§1) Xenograft Assay of Human Tumors.
(§2) Control mice received vehicle only.

[2] = Tissue distribution after short-term oral feeding of M4N (HPLC); format: in vivo, mice
Protocol: Tissue Distribution and Toxicity Analysis Following Short-Term and Long-Term Oral Feeding. For short-term feeding experiments, 30 mg of M4N dissolved in 300 μL castor oil was orally administered to each of 6 mice. At 2 h, 4 h, and 8 h post-administration time points, 2 mice were sacrificed, the organs and blood were collected, and the M4N extracted and quantitated as described below. In long-term feeding experiments, mice were fed food balls consisting of M4N dissolved in corn oil and Basal Mix (Harlan Teklad; Madison, Wis.; Cat. # TD 02273) for 14 weeks. Food balls weighed 9 g and contained 242 mg M4N each. Two mice, one male and one female, were reserved for long-term drug retention studies; and fourteen mice, both male and female, were used for long-term drug toxicity studies. At the end of feeding, mice were sacrificed, the organs and blood were collected, and the M4N extracted and quantitated as described below.
M4N Extraction and HPLC Analysis Following Oral Feeding. Organs and blood were harvested from M4N-fed mice, then frozen overnight at −80° C. Prior to freezing, gastro-intestinal organs (stomach, small intestine, colon) were cut open longitudinally and washed thoroughly with PBS to remove any contents. The following day, organs were cut into small pieces on dry ice with a razor blade, dried in a Speed-vac, then crushed into a rough powder using a mortar and pestle. Samples were extracted overnight in 100% ethanol with shaking. Samples were centrifuged and the supernatant collected. Pellets were extracted two more times in 100% ethanol overnight with shaking. The pooled ethanol extracts were evaporated on bench top for several days, then re-extracted with ethyl acetate, and dried completely in a Speed-vac. The dried samples were then analyzed quantitatively by HPLC and M4N was identified by mass spectroscopy using pure M4N as a standard.
In samples from short-term fed mice, dialysis was performed to further purify M4N from the tissue extracts. Dried ethanol extracts were redissolved in 1.5 mL 100% EtOH and centrifuged for 5 min. The supernatant was collected and the pellet was resuspended in 0.4 mL ethanol and centrifuged again. The supernatant was pooled with the previous supernatant, then dialyzed overnight against 150 mL 100% EtOH. The dialysates were dried on bench top and in a speed-vac, then analyzed by HPLC.
HPLC Quantitation of M4N. Samples from a single mouse at each time point were sent to KP Pharmaceuticals (Bloomington, Ind.) for HPLC analysis. HPLC conditions were described as follows: 35%:0.1% TFA in H2O, 65%=“CAN.” The M4N standard was prepared by diluting 10.01 mg M4N in 100 mL of CAN, then sonicating for 5 min. (2002 ng/injection). The samples were prepared by adding 400 μL EtOH and sonicating for 2 min. or until complete dissolution was achieved. The injection volume for the samples was 100 μL.
The convenience and ease of oral administration, however, especially in the case of long-term post-surgical adjuvant treatment, would considerably facilitate drug administration to patients and would improve patient quality of life. Thus, in addition to i.p. and i.v. administration, the ability to systemically distribute M4N by oral administration was also investigated. In both short-term (<8 hours) feeding experiments and long-term (14 weeks) feeding experiments, M4N levels in various tissues and their in vivo toxicity was assessed. In short-term experiments, mice were fed 30 mg of M4N dissolved in castor oil (100 mg M4N/mL castor oil), and at 2, 4, and 8 hours post-feeding, the quantity of M4N present in various tissues was determined by HPLC.

[3] = test system: various human tumor cells; assay: Cell culture analyses of tumor cell growth; format: cell-based
[4] = test system: MCF-7 breast adenocarcinoma cells; assay: Xenograft assay of human tumors in athymic nude mice, MCF-7; format: in vivo
From the text: as §1, §2

[5] = mouse, in vivo
Protocol: M4N Tissue Distribution Studies Using ^3H-M4N. Harlan ICR mice or C3 cell-induced tumor-bearing C57bl/6 mice were injected via tail vein or intraperitoneally with 100 μL of Cremaphor-ethanol based solvent containing 100 μCi of tritiated M4N and 60 mM of cold M4N. At the specified time post-injection, the mice were sacrificed, the organs and blood were collected, weighed, then dissolved overnight in 4 M guanidine isothiocyanate (GITC). The insoluble pellet was then further extracted with EtOH. Tritium content of both the GITC extract and the EtOH extract was measured on a Packard scintillation counter and the quantity of M4N in each organ was calculated based on the specific activity of the inoculum.
To determine the distribution of M4N in tissues over time following a single application, and also to assess the ability to deliver M4N to a distant tumor, six C3 cell-induced tumor bearing mice (A-F) were treated i.p. with ^3H-M4N as described above. At 4 hours, 6 hours, 18 hours, and 6 days post-injection, the quantities of ^3H-M4N in various tissues and the tumors were measured.

[6] = Maximal tolerable dose study in beagle dogs, clinical observations; format: in vivo; settings: over four hours
Protocol: Thus the M4N-DMSO group animals were administered with M4N-DMSO with eight intravenous injections via the non-VAP jugular vein every 30 minutes over a 4-hour period. This frequency of delivery mimicked the delivery of the test article using the infusion pump.
Animals from the CET group were observed during the entire infusion period and for at least one hour following end of infusion. The dogs in the DMSO group were observed throughout the jugular vein injection period and for at least one hour following the last (eighth) injection.

[7] = HT-29, of 11 M4N-treated tumors, 21 days i.p. treatment
[8] = MCF-7, of 10 M4N-treated tumors, 21 days i.p. treatment

With `COc1ccc(C[C@@H](C)[C@@H](C)Cc2ccc(OC)c(OC)c2)cc1OC` [M4N, meso-1,4-bis(3,4-dimethoxyphenyl)-2,3-dimethylbutane] the “Reduction in mean tumor volume versus control” value ([1]; HT-29, after 21 days systemic M4N treatment) was 70%, the “DOTV: number of tumors with decrease in volume from the original tumor volume” value [1, 7] was 3 and the “IOTV: number of tumors with increase in volume from the original tumor volume” value [1, 7] was 8. For the same compound, the “Tumor Volume Increase (%) - 21 Days Treatment, M4N-Treatment” value ([1]; HT-29 xenograft, 2 mg M4N i.p. daily for 3 weeks) was 787%, the “Ratio of Mean M4N-Treated Tumor Size to Control Tumor Size” value ([1]; HT-29 xenograft, 2 mg M4N i.p. daily, 21 days) was 29.4% and the “Quantity of M4N in each tissue” value ([2]; 2 hours post-feeding, 30 mg oral) was under 2 ng per gram tissue. For the same compound, the “M4N levels” value ([2]; 8 hours post-feeding) was “decreased in nearly all organs”, the “M4N (ng)/organ dry weight (g)” value ([2]; Bladder, 2 hours after oral 30 mg M4N in castor oil) was 2.34 ng/g and the “M4N (ng)/organ dry weight (g)” value ([2]; Bladder, 4 hours after oral 30 mg M4N in castor oil) was 1.69 ng/g. The “M4N (ng)/organ dry weight (g)” value ([2]; Bladder, 8 hours after oral 30 mg M4N in castor oil) was 0 ng/g, the “M4N (ng)/organ dry weight (g)” value ([2]; Blood, 2 hours after oral 30 mg M4N in castor oil) was 0.5 ng/g and the “M4N (ng)/organ dry weight (g)” value ([2]; Blood, 4 hours after oral 30 mg M4N in castor oil) was 2.08 ng/g. For the same compound, the “M4N (ng)/organ dry weight (g)” value ([2]; Blood, 8 hours after oral 30 mg M4N in castor oil) was 0 ng/g, the “M4N (ng)/organ dry weight (g)” value ([2]; Caecum, 2 hours after oral 30 mg M4N in castor oil) was 1.11 ng/g and the “M4N (ng)/organ dry weight (g)” value ([2]; Caecum, 4 hours after oral 30 mg M4N in castor oil) was 4.38 ng/g. For the same compound, the “M4N (ng)/organ dry weight (g)” value ([2]; Caecum, 8 hours after oral 30 mg M4N in castor oil) was 6.55 ng/g, the “M4N (ng)/organ dry weight (g)” value ([2]; Fat, 2 hours after oral 30 mg M4N in castor oil) was 0.11 ng/g and the “M4N (ng)/organ dry weight (g)” value ([2]; Fat, 4 hours after oral 30 mg M4N in castor oil) was 0 ng/g. The “M4N (ng)/organ dry weight (g)” value ([2]; Fat, 8 hours after oral 30 mg M4N in castor oil) was 0 ng/g, the “M4N (ng)/organ dry weight (g)” value ([2]; Heart, 2 hours after oral 30 mg M4N in castor oil) was 0.83 ng/g and the “M4N (ng)/organ dry weight (g)” value ([2]; Heart, 4 hours after oral 30 mg M4N in castor oil) was 0.11 ng/g. For the same compound, the “M4N (ng)/organ dry weight (g)” value ([2]; Heart, 8 hours after oral 30 mg M4N in castor oil) was 1.16 ng/g, the “M4N (ng)/organ dry weight (g)” value ([2]; Kidneys, 2 hours after oral 30 mg M4N in castor oil) was 0.12 ng/g and the “M4N (ng)/organ dry weight (g)” value ([2]; Kidneys, 4 hours after oral 30 mg M4N in castor oil) was 0.61 ng/g. For the same compound, the “M4N (ng)/organ dry weight (g)” value ([2]; Kidneys, 8 hours after oral 30 mg M4N in castor oil) was 0 ng/g, the “M4N (ng)/organ dry weight (g)” value ([2]; Lg. Intestine, 2 hours after oral 30 mg M4N in castor oil) was 0.24 ng/g and the “M4N (ng)/organ dry weight (g)” value ([2]; Lg. Intestine, 4 hours after oral 30 mg M4N in castor oil) was 8.24 ng/g. For the same compound, the “M4N (ng)/organ dry weight (g)” value ([2]; Lg. Intestine, 8 hours after oral 30 mg M4N in castor oil) was 2.68 ng/g, the “M4N (ng)/organ dry weight (g)” value ([2]; Liver, 2 hours after oral 30 mg M4N in castor oil) was 0.05 ng/g and the “M4N (ng)/organ dry weight (g)” value ([2]; Liver, 4 hours after oral 30 mg M4N in castor oil) was 0.52 ng/g. The “M4N (ng)/organ dry weight (g)” value ([2]; Liver, 8 hours after oral 30 mg M4N in castor oil) was 0 ng/g, the “M4N (ng)/organ dry weight (g)” value ([2]; Lungs, 2 hours after oral 30 mg M4N in castor oil) was 0.43 ng/g and the “M4N (ng)/organ dry weight (g)” value ([2]; Lungs, 4 hours after oral 30 mg M4N in castor oil) was 0 ng/g. For the same compound, the “M4N (ng)/organ dry weight (g)” value ([2]; Lungs, 8 hours after oral 30 mg M4N in castor oil) was 2.7 ng/g, the “M4N (ng)/organ dry weight (g)” value ([2]; Pancreas, 2 hours after oral 30 mg M4N in castor oil) was 0.57 ng/g and the “M4N (ng)/organ dry weight (g)” value ([2]; Pancreas, 4 hours after oral 30 mg M4N in castor oil) was 24.69 ng/g. For the same compound, the “M4N (ng)/organ dry weight (g)” value ([2]; Pancreas, 8 hours after oral 30 mg M4N in castor oil) was 2.97 ng/g, the “M4N (ng)/organ dry weight (g)” value ([2]; Seminal Vesicles, 2 hours after oral 30 mg M4N in castor oil) was 0.21 ng/g and the “M4N (ng)/organ dry weight (g)” value ([2]; Seminal Vesicles, 4 hours after oral 30 mg M4N in castor oil) was 0.37 ng/g. For the same compound, the “M4N (ng)/organ dry weight (g)” value ([2]; Seminal Vesicles, 8 hours after oral 30 mg M4N in castor oil) was 0 ng/g, the “M4N (ng)/organ dry weight (g)” value ([2]; Small Intestine, 2 hours after oral 30 mg M4N in castor oil) was 0.09 ng/g and the “M4N (ng)/organ dry weight (g)” value ([2]; Small Intestine, 4 hours after oral 30 mg M4N in castor oil) was 8.42 ng/g. The “M4N (ng)/organ dry weight (g)” value ([2]; Small Intestine, 8 hours after oral 30 mg M4N in castor oil) was 5.53 ng/g, the “M4N (ng)/organ dry weight (g)” value ([2]; Spleen, 2 hours after oral 30 mg M4N in castor oil) was 1.1 ng/g and the “M4N (ng)/organ dry weight (g)” value ([2]; Spleen, 4 hours after oral 30 mg M4N in castor oil) was 0.16 ng/g. For the same compound, the “M4N (ng)/organ dry weight (g)” value ([2]; Spleen, 8 hours after oral 30 mg M4N in castor oil) was 0 ng/g, the “M4N (ng)/organ dry weight (g)” value ([2]; Stomach, 2 hours after oral 30 mg M4N in castor oil) was 0.23 ng/g and the “M4N (ng)/organ dry weight (g)” value ([2]; Stomach, 4 hours after oral 30 mg M4N in castor oil) was 45.03 ng/g. The “M4N (ng)/organ dry weight (g)” value ([2]; Stomach, 8 hours after oral 30 mg M4N in castor oil) was 33.9 ng/g, the “M4N present in tissue” value ([2]; pancreas, 4 hours post-feeding) was “Significant quantities” and the “Time of peak M4N levels” value ([2]; post-feeding, single oral 30 mg) was “roughly 4 hours”. For the same compound, the “Growth of human tumor cells in culture” value [3] was “effectively prevent the growth”, the “Reduction in mean tumor volume versus control” value ([4]; MCF-7, after 21 days systemic M4N treatment) was 74% and the “DOTV: number of tumors with decrease in volume from the original tumor volume” value [4, 8] was 7. The “IOTV: number of tumors with increase in volume from the original tumor volume” value [4, 8] was 3, the “Tumor Volume Increase (%) - 21 Days Treatment, M4N-Treatment” value ([4]; MCF-7 xenograft, 2 mg M4N i.p. daily for 3 weeks) was 84% and the “Ratio of Mean M4N-Treated Tumor Size to Control Tumor Size” value ([4]; MCF-7 xenograft, 2 mg M4N i.p. daily, 21 days) was 25.5%. The “M4N tissue levels relative to levels seen at 6 hours” value [5] was 5-10%, the “M4N per gram of wet tumor” value ([5]; ip) was 294 ng per gram of wet tumor and the “Time of peak M4N tissue levels” value ([5]; ip) was “approximately 6 hours”. For the same compound, the “Dose safely administered by intravenous infusion” value ([6]; CET vehicle) was “up to 10 mg/kg” and the “Dose safely administered intravenously” value ([6]; DMSO vehicle) was “up to 100 mg/kg”.
